According to article PMC10881971, “Hepa-ToxMOA: a pathway-screening method for evaluating cellular stress and hepatic metabolic-dependent toxicity of natural products” (Scientific Reports, 2024):
Structures can show the parent of a compound that is named as a salt. Where two headings read alike, the source gives them in different places.

Key:
[1] = tested on: AP1
[2] = tested on: NF-κB
[3] = tested on: AP1, P53, Nrf2, and NF-κB
[4] = tested on: P53
[5] = tested on: Nrf2
[6] = regardless of metabolic activation (S9- and S9+), 24 h
[7] = under metabolic activation (S9+, 1% rat liver S9), 24 h
[8] = without metabolic activation (S9-), 24 h

Structure (SMILES): CCc1c2c(nc3ccc(O)cc13)-c1cc3c(c(=O)n1C2)COC(=O)[C@]3(O)CC [7-Ethyl-10-Hydroxycamptothecin]
- GFP intensity, AP1 cell line [1]: increased

Structure (SMILES): CC[C@@]1(O)C(=O)OCc2c1cc1n(c2=O)Cc2cc3c(OC)cccc3nc2-1 [9-Methoxycamptothecin]
- GFP expression, NF-κB cell line [2, 6]: increased GFP expression

Structure (SMILES): CC[C@@]1(O)C(=O)OCc2c1cc1n(c2=O)Cc2cc3cc(O)ccc3nc2-1 [10-Hydroxycamptothecin]
- GFP intensity, AP1 cell line [1, 6]: increased
- Toxic (natural products exceeding Score 3, Venn diagram list Fig. 3c) [3]: Common
- sum of activity scores compared between metabolic activation and non-metabolic conditions [3]: consistently active regardless of metabolic activation

Structure (SMILES): C[C@]12CC[C@H](O)C[C@H]1CC[C@@H]1[C@@H]2[C@H](O)C(=O)[C@]2(C)[C@@H](c3ccc(=O)oc3)CC[C@]12O [Arenobufagin]
- GFP expression, AP1 cell line [1, 7]: did not respond
- GFP expression, AP1 cell line [1, 8]: specifically induced GFP expression
- Toxic (natural products exceeding Score 3, Venn diagram list Fig. 3c) [3]: S9- only
- sum of activity scores compared between metabolic activation and non-metabolic conditions [3]: more active without metabolic activation

Structure (SMILES): C[C@]12CC[C@H](O)C[C@H]1CC[C@@H]1[C@@H]2CC[C@]2(C)[C@@H](c3ccc(=O)oc3)CC[C@]12O [Bufalin]
- GFP expression, AP1 cell line [1, 7]: did not respond
- GFP expression, AP1 cell line [1, 8]: specifically induced GFP expression
- sum of activity scores compared between metabolic activation and non-metabolic conditions [3]: more active under metabolic activation
- Toxic (natural products exceeding Score 3, Venn diagram list Fig. 3c) ([3]; human): S9+ only

Structure (SMILES): C[C@]12CC[C@H](O)C[C@H]1CC[C@@H]1[C@@H]2CC[C@]2(C)[C@@H](c3ccc(=O)oc3)C[C@H]3O[C@]132 [Bufogenin]
- GFP expression, AP1 cell line [1, 7]: did not respond
- GFP expression, AP1 cell line [1, 8]: specifically induced GFP expression
- Toxic (natural products exceeding Score 3, Venn diagram list Fig. 3c) [3]: Common
- active (increased GFP intensity) for all Hepa-ToxMOA cell lines (Fig. 3d) [3]: commonly active
- sum of activity scores compared between metabolic activation and non-metabolic conditions [3]: consistently active regardless of metabolic activation
- GFP expression, P53 cell line [4]: increased

Structure (SMILES): CC1=C(O)C(=O)C=C2C1=CC=C1[C@@]2(C)CC[C@@]2(C)[C@@H]3C[C@](C)(C(=O)O)CC[C@]3(C)CC[C@]12C [Celastrol]
- sum of activity scores compared between metabolic activation and non-metabolic conditions [3]: more active under metabolic activation
- Toxic (natural products exceeding Score 3, Venn diagram list Fig. 3c) ([3]; human): S9+ only

Structure (SMILES): CC(=O)O[C@H]1[C@H]2O[C@]23[C@@H]2CC[C@]4(O)C[C@@H](O)CC[C@]4(C)[C@H]2CC[C@]3(C)[C@H]1c1ccc(=O)oc1 [Cinobufotalin]
- sum of activity scores compared between metabolic activation and non-metabolic conditions [3]: more active without metabolic activation
- Toxic (natural products exceeding Score 3, Venn diagram list Fig. 3c) ([3]; human): S9- only

Structure (SMILES): C[C@@]1(C(=O)O)CC[C@]2(C)CC[C@]3(C)C4=CC(=O)c5c(cc(O)c(O)c5C=O)[C@]4(C)CC[C@@]3(C)[C@@H]2C1 [Demethylzeylasteral]
- sum of activity scores compared between metabolic activation and non-metabolic conditions [3]: did not show a response

Structure (SMILES): C[C@]12CC[C@H](O)C[C@H]1CC[C@@H]1[C@@H]2[C@H](O)C[C@]2(C)[C@@H](c3ccc(=O)oc3)CC[C@]12O [Gamabufotalin]
- sum of activity scores compared between metabolic activation and non-metabolic conditions [3]: more active without metabolic activation
- Toxic (natural products exceeding Score 3, Venn diagram list Fig. 3c) ([3]; human): S9- only
- GFP expression, P53 cell line [4]: increased

Structure (SMILES): CC(C)=CCc1c(O)cc2oc3cc(O)c(O)c(CCC(C)(C)O)c3c(=O)c2c1O [Garcinone C]
- Toxic (natural products exceeding Score 3, Venn diagram list Fig. 3c) [3]: S9+ only
- sum of activity scores compared between metabolic activation and non-metabolic conditions [3]: more active under metabolic activation

Structure (SMILES): CO[C@]1(CC[C@@H](C)CO[C@@H]2O[C@H](CO)[C@@H](O)[C@H](O)[C@H]2O)O[C@H]2C[C@H]3[C@@H]4CC=C5C[C@@H](O[C@@H]6O[C@H](CO)[C@@H](O[C@@H]7O[C@@H](C)[C@H](O)[C@@H](O)[C@H]7O)[C@H](O)[C@H]6O[C@@H]6O[C@@H](C)[C@H](O)[C@@H](O)[C@H]6O)CC[C@]5(C)[C@H]4CC[C@]3(C)[C@H]2[C@@H]1C [Methyl protodioscin]
- GFP intensity, AP1 cell line [1]: increased

Structure (SMILES): COc1cc2c3c(c1OC)-c1ccccc1C[C@H]3NCC2 [N-nornuciferine]
- Toxic (natural products exceeding Score 3, Venn diagram list Fig. 3c) [3]: Common
- active (increased GFP intensity) for all Hepa-ToxMOA cell lines (Fig. 3d) [3]: commonly active
- sum of activity scores compared between metabolic activation and non-metabolic conditions [3]: consistently active regardless of metabolic activation
- GFP expression, P53 cell line [4]: no change
- increase of GFP expression, P53 cell line [4]: up to 1.5 fold
- GFP expression, NF-κB cell line [2]: increased GFP expression
- GFP expression, Nrf2 cell line [5]: induced GFP expression

Structure (SMILES): C[C@@H]1CC[C@@]2(OC1)O[C@H]1C[C@H]3[C@@H]4CC=C5C[C@@H](O)C[C@@H](O[C@@H]6O[C@H](C)[C@H](O)[C@H](O)[C@H]6O[C@@H]6O[C@@H](C)[C@H](O)[C@@H](O)[C@H]6O)[C@]5(C)[C@H]4CC[C@]3(C)[C@H]1[C@@H]2C [Ophiopogonin B]
- sum of activity scores compared between metabolic activation and non-metabolic conditions [3]: did not show a response

Structure (SMILES): CO[C@H]1C[C@H](O[C@H]2CC[C@]3(C)[C@H]4CC[C@]5(C)[C@@H](C6=CC(=O)OC6)CC[C@]5(O)[C@@H]4CC[C@]3(O)C2)O[C@H](C)[C@H]1O[C@@H]1O[C@H](CO)[C@@H](O)[C@H](O)[C@H]1O [Periplocoside]
- GFP expression, AP1 cell line [1, 7]: did not respond
- GFP expression, AP1 cell line [1, 8]: specifically induced GFP expression

Structure (SMILES): COc1cc([C@@H]2c3cc4c(cc3[C@H](O)[C@H]3COC(=O)[C@@H]23)OCO4)cc(OC)c1OC [Picropodophyllotoxin]
- GFP expression, AP1 cell line [1, 7]: did not respond
- GFP expression, AP1 cell line [1, 8]: specifically induced GFP expression

Structure (SMILES): C[C@@H]1O[C@@H](O[C@H]2[C@H](OC(=O)[C@]34CCC(C)(C)C[C@H]3C3=CC[C@@H]5[C@@]6(C)C[C@H](O)[C@H](O[C@@H]7O[C@H](CO)[C@@H](O)[C@H](O[C@@H]8O[C@H](CO)[C@@H](O)[C@H](O)[C@H]8O)[C@H]7O)C(CO)(CO)[C@@H]6CC[C@@]5(C)[C@]3(C)C[C@H]4O)OC[C@H](O)[C@@H]2O)[C@H](O)[C@H](O)[C@H]1O[C@@H]1OC[C@@H](O)[C@H](O[C@@H]2OC[C@](O)(CO)[C@H]2O)[C@H]1O [Platycodin D2]
- sum of activity scores compared between metabolic activation and non-metabolic conditions [3]: more active without metabolic activation
- Toxic (natural products exceeding Score 3, Venn diagram list Fig. 3c) ([3]; human): S9- only

Structure (SMILES): C[C@@H]1O[C@@H](O[C@H]2[C@H](OC(=O)[C@]34CCC(C)(C)C[C@H]3C3=CC[C@@H]5[C@@]6(C)C[C@H](O)[C@H](O[C@@H]7O[C@H](CO)[C@@H](O)[C@H](O)[C@H]7O)C(CO)(CO)[C@@H]6CC[C@@]5(C)[C@]3(C)C[C@H]4O)OC[C@H](O)[C@@H]2O)[C@H](O)[C@H](O)[C@H]1O[C@@H]1OC[C@@H](O)[C@H](O[C@@H]2OC[C@](O)(CO)[C@H]2O)[C@H]1O [Platycodin D]
- sum of activity scores compared between metabolic activation and non-metabolic conditions [3]: more active under metabolic activation
- Toxic (natural products exceeding Score 3, Venn diagram list Fig. 3c) ([3]; human): S9+ only

Structure (SMILES): COc1cc([C@@H]2c3cc4c(cc3[C@H](O)[C@H]3COC(=O)[C@H]23)OCO4)cc(OC)c1OC [Podophyllotoxin, reference compound]
- GFP expression, AP1 cell line [1, 7]: did not respond
- GFP expression, AP1 cell line [1, 8]: specifically induced GFP expression
- Toxic (natural products exceeding Score 3, Venn diagram list Fig. 3c) [3]: Common
- sum of activity scores compared between metabolic activation and non-metabolic conditions [3]: consistently active regardless of metabolic activation

Structure (SMILES): C[C@]12CC[C@H](O)C[C@@]1(O)CC[C@@H]1[C@@H]2CC[C@]2(C)[C@@H](c3ccc(=O)oc3)CC[C@]12O [Telocinobufagin]
- sum of activity scores compared between metabolic activation and non-metabolic conditions [3]: more active without metabolic activation
- Toxic (natural products exceeding Score 3, Venn diagram list Fig. 3c) ([3]; human): S9- only

Structure (SMILES): CC[C@]1(O)C[C@@H]2CN(CCc3c([nH]c4ccccc34)[C@@](C(=O)OC)(c3cc4c(cc3OC)N(C)[C@H]3[C@@](O)(C(=O)OC)[C@H](OC(C)=O)[C@]5(CC)C=CCN6CC[C@]43[C@@H]65)C2)C1 [Vinblastine sulfate, reference compound]
- sum of activity scores compared between metabolic activation and non-metabolic conditions [3]: more active under metabolic activation
- Toxic (natural products exceeding Score 3, Venn diagram list Fig. 3c) ([3]; human): S9+ only

Structure (SMILES): CC[C@]1(O)C[C@H]2CN(CCc3c([nH]c4ccccc34)[C@@](C(=O)OC)(c3cc4c(cc3OC)N(C=O)[C@H]3[C@@](O)(C(=O)OC)[C@H](OC(C)=O)[C@]5(CC)C=CCN6CC[C@]43[C@@H]65)C2)C1 [Vincristine, reference compound]
- active (increased GFP intensity) for all Hepa-ToxMOA cell lines (Fig. 3d) [3]: commonly active
- sum of activity scores compared between metabolic activation and non-metabolic conditions [3]: more active under metabolic activation
- Toxic (natural products exceeding Score 3, Venn diagram list Fig. 3c) ([3]; human): S9+ only

Structure (SMILES): COc1c(O)cc2oc3cc(O)c(CC=C(C)C)c(O)c3c(=O)c2c1CC=C(C)C [alpha-Mangostin]
- Toxic (natural products exceeding Score 3, Venn diagram list Fig. 3c) [3]: S9+ only
- sum of activity scores compared between metabolic activation and non-metabolic conditions [3]: more active under metabolic activation

Structure (SMILES): O=C(C[C@@H]1NCCC[C@H]1O)Cn1cnc2ccccc2c1=O [beta-dichroine, beta-febrifugine (beta-dichroine)]
- sum of activity scores compared between metabolic activation and non-metabolic conditions [3]: did not show a response
